Data taken from US9656996B2, “Fused heterocyclic compound, preparation method therefor, pharmaceutical composition, and uses thereof” (SHANGHAI YINGLI PHARMACEUTICAL CO., LTD., priority 2013, dated 2017).

Tests used:
PI3Kδ = PI3Kδ (Homo sapiens (Human), UniProt O00329); experiment: PI3Kδ enzymatic inhibitory activity IC50 assay; assay type: biochemical; conditions: luminescence readout, 25 μM ATP, 50 μM PIP2, 2 hours at room temperature
Procedure: (§1) 1. Buffer preparation: 50 mM HEPES, pH 7.5, 3 mM MgCl2, 1 mM EGTA, 100 mM NaCl, 0.03% CHAPS.
(§2) 2. The compound was formulated in 100% DMSO in a concentration gradient, and deposited to a 384-well plate with a final DMSO concentration of 1%.
(§3) 3. PI3Kα, PI3Kδ, PI3Kβ and PI3Kγ enzymes (purchased from EMD Millipore) were diluted to the optimal concentration with the following buffer: 50 mM HEPES, pH 7.5, 3 mM MgCl2, 1 mM EGTA, 100 mM NaCl, 0.03% CHAPS, 2 mM DTT, transferred to a 384-well plate and incubated with the compound for a certain time.
(§4) 4. The substrate was diluted to an optimal concentration with the following buffer: 50 mM HEPES, pH 7.5, 3 mM MgCl2, 1 mM EGTA, 100 mM NaCl, 0.03% CHAPS, 2 mM DTT, 50 μM PIP2, 25 μM ATP and added to the 384-well plate to initiate the reaction. PI3Kα, PI3Kβ and PI3Kγ were allowed to react for 1 h at room temperature, and PI3Kδ reacted for 2 hours at room temperature. Another 10 μL ADP-Glo Detection Reagent also needed to be added for PI3Kβ and PI3Kγ, and then equilibrated at room temperature for 30 minutes.
(§5) 5. Luminescence was read by using Flexstation, and the inhibition rate was calculated as the average value of two tests.

PI3Kα = PI3Kα (Homo sapiens (Human), UniProt P42336); experiment: PI3Kα enzymatic inhibitory activity IC50 assay; assay type: biochemical; conditions: selectivity ratio
Chain of PI3Kα (P42336 whole entry, species assumed): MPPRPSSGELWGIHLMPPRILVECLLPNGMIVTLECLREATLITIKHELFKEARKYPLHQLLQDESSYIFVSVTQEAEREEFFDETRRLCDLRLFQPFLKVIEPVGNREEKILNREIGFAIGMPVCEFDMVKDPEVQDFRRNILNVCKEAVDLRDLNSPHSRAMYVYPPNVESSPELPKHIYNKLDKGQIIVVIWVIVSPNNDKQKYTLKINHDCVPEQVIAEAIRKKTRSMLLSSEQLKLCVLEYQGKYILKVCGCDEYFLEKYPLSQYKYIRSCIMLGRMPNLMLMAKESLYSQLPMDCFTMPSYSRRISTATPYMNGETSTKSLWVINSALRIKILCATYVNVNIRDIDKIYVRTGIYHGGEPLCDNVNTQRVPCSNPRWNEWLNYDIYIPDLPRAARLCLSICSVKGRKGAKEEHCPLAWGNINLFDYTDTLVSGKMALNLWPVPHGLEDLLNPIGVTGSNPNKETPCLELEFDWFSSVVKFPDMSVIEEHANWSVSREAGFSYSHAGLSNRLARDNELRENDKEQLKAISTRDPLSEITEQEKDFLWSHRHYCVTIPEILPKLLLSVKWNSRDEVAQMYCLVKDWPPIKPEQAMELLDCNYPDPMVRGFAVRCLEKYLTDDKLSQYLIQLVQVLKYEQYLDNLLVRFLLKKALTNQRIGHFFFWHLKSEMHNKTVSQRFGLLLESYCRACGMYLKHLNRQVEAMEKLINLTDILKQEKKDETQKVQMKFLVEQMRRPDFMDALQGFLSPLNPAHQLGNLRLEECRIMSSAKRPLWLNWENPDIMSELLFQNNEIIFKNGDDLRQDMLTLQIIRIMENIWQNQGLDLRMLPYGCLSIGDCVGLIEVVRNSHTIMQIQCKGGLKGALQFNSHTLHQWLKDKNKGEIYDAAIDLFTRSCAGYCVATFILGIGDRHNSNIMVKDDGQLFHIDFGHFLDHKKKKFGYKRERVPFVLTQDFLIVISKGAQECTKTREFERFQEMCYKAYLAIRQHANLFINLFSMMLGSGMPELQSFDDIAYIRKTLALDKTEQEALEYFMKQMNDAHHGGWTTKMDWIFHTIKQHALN
Chain of PI3Kα (P27986 whole entry partner, species assumed): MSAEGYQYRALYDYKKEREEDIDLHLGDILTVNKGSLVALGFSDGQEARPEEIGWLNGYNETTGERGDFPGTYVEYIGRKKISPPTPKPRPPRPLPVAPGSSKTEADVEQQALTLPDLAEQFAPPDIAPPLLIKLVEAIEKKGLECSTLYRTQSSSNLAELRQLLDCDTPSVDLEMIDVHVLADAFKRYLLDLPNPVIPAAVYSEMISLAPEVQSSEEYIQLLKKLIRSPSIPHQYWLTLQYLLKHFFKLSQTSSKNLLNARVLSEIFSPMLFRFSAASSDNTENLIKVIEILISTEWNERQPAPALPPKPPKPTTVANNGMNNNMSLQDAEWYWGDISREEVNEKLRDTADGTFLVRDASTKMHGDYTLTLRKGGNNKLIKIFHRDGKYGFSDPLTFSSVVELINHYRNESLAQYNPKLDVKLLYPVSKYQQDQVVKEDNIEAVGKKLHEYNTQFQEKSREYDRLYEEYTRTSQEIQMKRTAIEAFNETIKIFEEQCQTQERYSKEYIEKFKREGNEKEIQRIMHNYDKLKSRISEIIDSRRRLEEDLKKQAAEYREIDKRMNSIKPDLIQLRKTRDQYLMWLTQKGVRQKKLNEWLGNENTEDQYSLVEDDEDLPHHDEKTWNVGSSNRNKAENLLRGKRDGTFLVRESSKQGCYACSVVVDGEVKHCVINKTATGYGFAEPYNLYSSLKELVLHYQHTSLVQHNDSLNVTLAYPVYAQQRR
Procedure: as §1, §2, §3, §4, §5

[1] = system: Raji cell TNF-α generation; experiment: Inhibition of human Raji cell TNF-α generation induced by human IgM (ELISA); assay type: cell-based; conditions: Raji cells, IgM stimulation, 24 hours
Procedure: 1. Raji cell line (human Burkitt's lymphoma origin) (ATCC, Cat#CCL-86) was used.
2. Raji cells were applied onto the 96-well plate with 1×10^5/well.
3. The compounds to be screened were diluted to the corresponding test concentration, and added to the cell culture system 30 minutes prior to IgM stimulation.
4. 10 µg/ml IgM monoclonal antibody (JACKSON, Cat#109-006-129) was added to the cell culture system in order to stimulate the cells generating TNF-α.
5. After 24 hours, the amount of TNF-α produced by the cell line was determined by ELISA.
6. The inhibition rates at each concentration of the compound were calculated and plotted to calculate 50% inhibition rate (IC50), and the specific results were shown in table 3.

PI3Kγ = PI3Kγ (Homo sapiens (Human), UniProt P48736); experiment: PI3Kγ enzymatic inhibitory activity IC50 assay; assay type: biochemical; conditions: selectivity ratio
Chain of PI3Kγ (P48736 whole entry, species assumed): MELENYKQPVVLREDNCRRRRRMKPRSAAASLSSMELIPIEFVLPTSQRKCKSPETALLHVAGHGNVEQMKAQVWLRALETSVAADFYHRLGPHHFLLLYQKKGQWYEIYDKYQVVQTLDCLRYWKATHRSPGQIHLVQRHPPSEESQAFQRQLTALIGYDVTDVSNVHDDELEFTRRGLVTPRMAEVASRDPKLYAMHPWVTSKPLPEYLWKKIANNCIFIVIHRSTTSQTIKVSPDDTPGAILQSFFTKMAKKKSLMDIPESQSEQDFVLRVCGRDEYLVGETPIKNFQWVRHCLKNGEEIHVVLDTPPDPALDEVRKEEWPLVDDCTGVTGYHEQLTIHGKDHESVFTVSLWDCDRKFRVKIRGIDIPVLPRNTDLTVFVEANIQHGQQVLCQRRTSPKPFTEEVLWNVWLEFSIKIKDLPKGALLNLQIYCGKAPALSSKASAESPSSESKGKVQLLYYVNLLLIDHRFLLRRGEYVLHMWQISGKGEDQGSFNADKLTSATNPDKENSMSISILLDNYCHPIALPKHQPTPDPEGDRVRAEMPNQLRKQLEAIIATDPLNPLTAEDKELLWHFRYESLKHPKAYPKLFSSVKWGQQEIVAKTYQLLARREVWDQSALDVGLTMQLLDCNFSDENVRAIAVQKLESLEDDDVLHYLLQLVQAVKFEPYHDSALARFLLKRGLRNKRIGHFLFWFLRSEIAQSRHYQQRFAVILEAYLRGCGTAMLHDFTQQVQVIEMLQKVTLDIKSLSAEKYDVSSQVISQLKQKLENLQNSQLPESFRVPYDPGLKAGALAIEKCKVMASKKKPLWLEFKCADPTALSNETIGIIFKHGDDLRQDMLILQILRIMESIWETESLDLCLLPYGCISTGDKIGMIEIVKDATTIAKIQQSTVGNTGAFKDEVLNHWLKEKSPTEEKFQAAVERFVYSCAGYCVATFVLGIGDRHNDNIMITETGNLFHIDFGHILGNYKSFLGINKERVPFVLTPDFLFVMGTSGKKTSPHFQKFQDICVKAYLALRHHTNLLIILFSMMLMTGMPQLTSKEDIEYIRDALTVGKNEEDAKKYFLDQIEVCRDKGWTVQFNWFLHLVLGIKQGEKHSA
Procedure: as §1, §2, §3, §4, §5

PI3Kβ = PI3Kβ (Homo sapiens (Human), UniProt P42338); experiment: PI3Kβ enzymatic inhibitory activity IC50 assay; assay type: biochemical; conditions: selectivity ratio
Chain of PI3Kβ (P42338 whole entry, species assumed): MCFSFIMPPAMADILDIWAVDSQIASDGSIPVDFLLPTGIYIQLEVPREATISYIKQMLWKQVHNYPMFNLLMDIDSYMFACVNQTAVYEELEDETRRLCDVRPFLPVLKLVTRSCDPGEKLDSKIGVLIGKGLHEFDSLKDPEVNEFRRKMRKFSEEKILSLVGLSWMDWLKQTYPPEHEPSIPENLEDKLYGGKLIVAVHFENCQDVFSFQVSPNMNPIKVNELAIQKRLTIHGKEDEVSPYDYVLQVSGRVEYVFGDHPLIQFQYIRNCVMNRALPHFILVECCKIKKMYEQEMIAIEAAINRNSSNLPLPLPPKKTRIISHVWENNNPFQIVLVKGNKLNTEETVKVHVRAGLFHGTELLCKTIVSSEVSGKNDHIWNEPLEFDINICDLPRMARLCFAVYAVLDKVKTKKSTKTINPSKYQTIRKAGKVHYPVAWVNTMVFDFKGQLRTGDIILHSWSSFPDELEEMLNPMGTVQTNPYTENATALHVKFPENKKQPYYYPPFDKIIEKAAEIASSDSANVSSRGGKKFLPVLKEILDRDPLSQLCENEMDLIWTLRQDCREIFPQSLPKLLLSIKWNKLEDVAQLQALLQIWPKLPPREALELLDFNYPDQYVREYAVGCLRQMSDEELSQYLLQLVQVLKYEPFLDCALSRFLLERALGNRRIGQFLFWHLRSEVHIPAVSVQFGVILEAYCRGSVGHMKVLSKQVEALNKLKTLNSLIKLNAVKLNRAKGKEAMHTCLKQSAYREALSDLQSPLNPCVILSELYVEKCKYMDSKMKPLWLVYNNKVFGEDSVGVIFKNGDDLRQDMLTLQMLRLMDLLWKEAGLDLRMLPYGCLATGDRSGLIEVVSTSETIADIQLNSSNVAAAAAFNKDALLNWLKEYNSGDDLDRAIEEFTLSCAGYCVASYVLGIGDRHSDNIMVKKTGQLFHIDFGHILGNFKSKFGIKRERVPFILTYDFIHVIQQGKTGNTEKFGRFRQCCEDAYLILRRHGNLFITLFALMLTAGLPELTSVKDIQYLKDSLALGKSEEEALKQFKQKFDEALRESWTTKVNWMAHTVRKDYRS
Chain of PI3Kβ (P27986 whole entry partner, species assumed): as the sequence (P27986 whole entry partner, species assumed) above
Procedure: as §1, §2, §3, §4, §5

Chain of PI3Kδ (O00329 whole entry, species assumed): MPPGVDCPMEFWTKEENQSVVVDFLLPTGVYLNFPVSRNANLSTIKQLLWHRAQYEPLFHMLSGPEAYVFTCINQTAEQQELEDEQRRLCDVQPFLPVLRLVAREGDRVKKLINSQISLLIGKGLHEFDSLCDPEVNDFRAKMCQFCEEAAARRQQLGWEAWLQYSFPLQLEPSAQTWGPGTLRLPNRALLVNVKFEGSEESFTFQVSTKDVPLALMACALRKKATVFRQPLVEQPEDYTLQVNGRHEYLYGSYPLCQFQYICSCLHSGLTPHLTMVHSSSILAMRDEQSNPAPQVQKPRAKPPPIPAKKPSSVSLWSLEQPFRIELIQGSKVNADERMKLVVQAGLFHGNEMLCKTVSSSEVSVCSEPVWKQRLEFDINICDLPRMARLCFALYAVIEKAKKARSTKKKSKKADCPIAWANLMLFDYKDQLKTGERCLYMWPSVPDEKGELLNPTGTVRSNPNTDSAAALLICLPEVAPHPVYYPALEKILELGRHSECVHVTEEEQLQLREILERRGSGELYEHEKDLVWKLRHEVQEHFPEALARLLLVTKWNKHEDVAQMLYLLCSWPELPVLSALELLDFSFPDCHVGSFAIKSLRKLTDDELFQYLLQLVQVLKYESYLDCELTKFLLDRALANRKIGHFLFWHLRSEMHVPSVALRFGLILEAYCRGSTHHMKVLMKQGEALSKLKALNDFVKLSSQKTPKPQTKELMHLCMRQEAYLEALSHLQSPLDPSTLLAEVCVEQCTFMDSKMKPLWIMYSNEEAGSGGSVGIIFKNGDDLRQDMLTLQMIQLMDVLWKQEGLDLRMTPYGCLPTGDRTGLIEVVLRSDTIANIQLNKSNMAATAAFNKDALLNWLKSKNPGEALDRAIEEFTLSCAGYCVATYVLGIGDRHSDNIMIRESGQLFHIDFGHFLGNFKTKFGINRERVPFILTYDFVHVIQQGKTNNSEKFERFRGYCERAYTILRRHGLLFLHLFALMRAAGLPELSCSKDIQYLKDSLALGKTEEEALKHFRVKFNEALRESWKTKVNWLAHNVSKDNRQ
Chain of PI3Kδ (P27986 whole entry partner, species assumed): as the sequence (P27986 whole entry partner, species assumed) above

Row | IC50 (PI3Kδ) | α/δ (ratio of IC50 values against PI3Kα to PI3Kδ) (PI3Kα) | IC50 [1] | γ/δ (ratio of IC50 values against PI3Kγ to PI3Kδ) (PI3Kγ) | β/δ (ratio of IC50 values against PI3Kβ to PI3Kδ) (PI3Kβ) | Structure (SMILES)
1 | 7.6 nM | 341 | 29.1 nM | – | – | COc1ncc(-c2nc(N3CCOCC3)nc3c(CN4CCC(C(C)(C)O)CC4)cccc23)cc1NS(C)(=O)=O [Compound 1]
2 | 17 nM | 368 | 92.7 nM | – | – | COc1ncc(-c2nc(N3CCOCC3)nc3c(CN4CCC(OC)CC4)cccc23)cc1NS(C)(=O)=O [Compound 2]
3 | 45 nM | 2 | – | – | – | C[C@@H](O)C(=O)N1CCN(Cc2cccc3c(-c4cnc(N)nc4)nc(N4CCOCC4)nc23)CC1 [Compound 4]
4 | 58.6 nM | 1 | – | – | – | CS(=O)(=O)N1CCN(Cc2cccc3c(-c4cnc(N)nc4)nc(N4CCOCC4)nc23)CC1 [Compound 5]
5 | 457 nM | 2.4 | – | – | – | CS(=O)(=O)N1CCN(Cc2cccc3c(-c4cccc5[nH]ncc45)nc(N4CCOCC4)nc23)CC1 [Compound 6]
6 | 31 nM | 130 | 34.8 nM | >322 | 166 | COc1ncc(-c2nc(N3CCOCC3)nc3c(CN4CCC(N5CCCCC5)CC4)cc(F)cc23)cc1NS(C)(=O)=O [Compound 7]
7 | 9.8 nM | 292 | 28.4 nM | – | – | COc1ncc(-c2nc(N3CCOCC3)nc3c(CN4CCC(N5CCCC5)CC4)cc(F)cc23)cc1NS(C)(=O)=O [Compound 8]
8 | 19 nM | 233 | – | – | – | COc1ncc(-c2nc(N3CCOCC3)nc3c(CN4CCC(N5CCC5)CC4)cc(F)cc23)cc1NS(C)(=O)=O [Compound 9]
9 | 6.4 nM | 320 | 66 nM | >1000 | 31 | COc1ncc(-c2nc(N3CCOCC3)nc3c(CN4CCC(C(C)(C)O)CC4)cc(F)cc23)cc1NS(C)(=O)=O [Compound 10]
10 | 606 nM | 2.3 | – | – | – | CS(=O)(=O)N1CCN(Cc2cnn3c(-c4cccc5[nH]ncc45)cc(N4CCOCC4)nc23)CC1 [Compound 11]
11 | 239 nM | >42 | – | – | – | CC(C)(O)C1CCN(Cc2cnc3c(-c4cncc(NS(C)(=O)=O)c4)nc(N4CCOCC4)cn23)CC1 [Compound 13]
12 | 1040 nM | >9 | – | – | – | CN1CCN(Cc2cnc3c(-c4cncc(NS(C)(=O)=O)c4)nc(N4CCOCC4)cn23)CC1 [Compound 14]
13 | 345 nM | 23 | – | >29 | >29 | COc1ncc(-c2nc(N3CCOCC3)c3cc(CN4CCC(N5CCCCC5)CC4)ccc3n2)cc1NS(C)(=O)=O [Compound 15]
14 | 15 nM | 42 | 20.1 nM | >650 | 341 | COc1ncc(-c2nc(N3CCOCC3)c3sc(CN4CCC(N(C)C(C)C)CC4)c(C)c3n2)cc1NS(C)(=O)=O [Compound 16]
15 | 3.4 nM | 38 | – | – | – | COc1ncc(-c2nc(N3CCOCC3)c3sc(CN4CCC(C(C)(C)O)CC4)c(C)c3n2)cc1NS(C)(=O)=O [Compound 17]
16 | 4.2 nM | 11 | 15.2 nM | – | – | COc1ncc(-c2nc(N3CCOCC3)c3nc(OC4CCN(C5COC5)CC4)n(C)c3n2)cc1NS(C)(=O)=O [Compound 18]
17 | 5 nM | 88 | – | – | – | COc1ncc(-c2nc(N3CCOCC3)c3nc(OC4CN(C5CCCCC5)C4)n(C)c3n2)cc1NS(C)(=O)=O [Compound 19]

Row | IC50 (PI3Kδ) | α/δ (ratio of IC50 values against PI3Kα to PI3Kδ) (PI3Kα) | IC50 [1] | γ/δ (ratio of IC50 values against PI3Kγ to PI3Kδ) (PI3Kγ) | β/δ (ratio of IC50 values against PI3Kβ to PI3Kδ) (PI3Kβ) | Structure (SMILES)
18 | 4.6 nM | 15 | – | – | – | COc1ncc(-c2nc(N3CCOCC3)c3nc(OC4CCOCC4)n(C)c3n2)cc1NS(C)(=O)=O [Compound 20]
19 | 15.3 nM | 91 | – | – | – | COc1ncc(-c2nc(N3CCOCC3)c3nc(OC4CCC(N5CCCC5)CC4)n(C)c3n2)cc1NS(C)(=O)=O (stereo not shown) [Compound 21]
20 | 31 nM | 2 | – | – | – | Nc1ncc(-c2nc(N3CCOCC3)nc3c(CN4CCN(C(=O)CO)CC4)cc(F)cc23)cn1 [Compound 22]
21 | 16 nM | 79 | 88.7 nM | >625 | 40 | COc1ncc(-c2nc(N3CCOCC3)nc3c(CN4CCC(N5CCCCC5=O)CC4)cc(F)cc23)cc1NS(C)(=O)=O [Compound 23]
22 | 87 nM | 32 | – | – | – | COc1ncc(-c2nc(N3CCOCC3)nc3c(CN4CCC[C@H]4C(C)(C)O)cc(F)cc23)cc1NS(C)(=O)=O [Compound 26]
23 | 24 nM | 83 | 230 nM | – | – | COc1ncc(-c2nc(N3CCOCC3)nc3c(CN4CC(C(C)(C)O)C4)cc(F)cc23)cc1NS(C)(=O)=O [Compound 27]
24 | 77 nM | 63 | – | >129 | >129 | COc1ncc(-c2nc(N3CCOCC3)nc3c(OC4CCC(C(C)(C)O)CC4)cc(F)cc23)cc1NS(C)(=O)=O (stereo not shown) [Compound 28]
25 | 19 nM | 22 | – | – | – | COc1ncc(-c2nc(N3CCOCC3)nc3c(CN4CCN(C)C(=O)C4)cc(F)cc23)cc1NS(C)(=O)=O [Compound 29]
26 | 41 nM | 15 | 352 nM | – | – | COc1ncc(-c2nc(N3CCOCC3)nc3c(O[C@@H]4CCOC4)cc(F)cc23)cc1NS(C)(=O)=O [Compound 30]
27 | 27 nM | 24 | – | – | – | COc1ncc(-c2nc(N3CCOCC3)nc3c(OCC4CCOCC4)cc(F)cc23)cc1NS(C)(=O)=O [Compound 31]
28 | 38 nM | 23 | – | – | – | COc1ncc(-c2nc(N3CCOCC3)nc3c(OC4CCOCC4)cc(F)cc23)cc1NS(C)(=O)=O [Compound 32]
29 | 47.1 nM | 113 | 260 nM | – | – | COc1ncc(-c2nc(N3CCOCC3)nc3c(OCCN4CCCCC4)cc(F)cc23)cc1NS(C)(=O)=O [Compound 33]
30 | 18.2 nM | 202 | 66 nM | >549 | 360 | COc1ncc(-c2nc(N3CCOCC3)nc3c(OC4CCC(N5CCCCC5)CC4)cc(F)cc23)cc1NS(C)(=O)=O (stereo not shown) [Compound 34]
31 | 20 nM | 227 | 105 nM | >500 | 322 | COc1ncc(-c2nc(N3CCOCC3)nc3c(OC4CCC(N5CCCCC5)CC4)cc(F)cc23)cc1NS(C)(=O)=O (stereo not shown) [Compound 35]
32 | 117 nM | 42 | – | >85 | >85 | COc1ncc(-c2nc(N3CCOCC3)nc3c(OC4CC(C(C)(C)O)C4)cc(F)cc23)cc1NS(C)(=O)=O (stereo not shown) [Compound 37]
33 | 15.8 nM | 28 | 32 nM | – | – | COc1ncc(-c2nc(N3CCOCC3)nc3c(OC4CN(C5CCOCC5)C4)cc(F)cc23)cc1NS(C)(=O)=O [Compound 38]
34 | 22 nM | 58 | 108 nM | – | – | COc1ncc(-c2nc(N3CCOCC3)nc3c(OC4CN(C(=O)C(C)C)C4)cc(F)cc23)cc1NS(C)(=O)=O [Compound 39]

Row | Structure (SMILES) | IC50 (PI3Kδ) | α/δ (ratio of IC50 values against PI3Kα to PI3Kδ) (PI3Kα) | IC50 [1] | γ/δ (ratio of IC50 values against PI3Kγ to PI3Kδ) (PI3Kγ) | β/δ (ratio of IC50 values against PI3Kβ to PI3Kδ) (PI3Kβ)
35 | COc1ncc(-c2nc(N3CCOCC3)nc3c(CN4CCC(N5CCCCC5)CC4)cccc23)cc1NS(C)(=O)=O [Compound 3] | 31 nM | 119 | 31.7 nM | – | –
36 | COc1ncc(-c2nc(N3CCOCC3)nc3c(CN4CC[C@@H](N5CCCCC5=O)C4)cc(F)cc23)cc1NS(C)(=O)=O [Compound 24] | 21 nM | 45 | – | – | –
